Test results: patent US20260191835A1, “COMBINATIONS COMPRISING A MENIN-MLL INHIBITOR AND AT LEAST ONE OTHER THERAPEUTIC AGENT” (JANSSEN PHARMACEUTICA NV, priority 2022, published 2026)

Columns and labels:
KO-52 cells = assay: Proliferation assay (spheroid assay), KO-52 control cell line; format: cell-based; settings: Homo sapiens, 192 h, 8 days; MLL wildtype control cell line; read-out: spheroid assay_KO-52 IC50
Procedure: (§1) The anti-proliferative effect of menin/MLL protein/protein interaction inhibitor test compounds was assessed in human leukemia cell lines. The cell line MOLM14 harbors a MLL translocation and expresses the MLL fusion protein MLL-AF9, respectively, as well as the wildtype protein from the second allele. OCI-AML3 cells that carry the NPM1c gene mutation were also tested. […] KO-52 was used as a control cell line containing two MLL (KMT2A) wildtype alleles in order to exclude compounds that display general cytotoxic effects.
(§2) MOLM14 cells were cultured in RPMI-1640 (Sigma Aldrich) supplemented with 10% heat-inactivated fetal bovine serum (HyClone), 2 mM L-glutamine (Sigma Aldrich) and 50 μg/ml gentamycin (Gibco). KO-52 and OCI-AML3 cell lines were propagated in alpha-MEM (Sigma Aldrich) supplemented with 20% heat-inactivated fetal bovine serum (HyClone), 2 mM L-glutamine (Sigma Aldrich) and 50 µg/ml gentamycin (Gibco).
In order to assess the anti-proliferative effects, 200 MOLM14 cells, 200° C. […] Spheroid like growth was measured in real-time by live-cell imaging (IncuCyteZOOM, Essenbio, 4× objective) acquiring images at day 8. Confluence (%) as a measure of spheroid size was determined using an integrated analysis tool.
In order to determine the effect of the test compounds over time, the confluence in each well as a measure of spheroid size, was calculated. […]

MEIS1 mRNA expression = MEIS1 mRNA expression assay (Quantigene Singleplex) in MOLM14; format: cell-based; settings: Homo sapiens, MOLM-14, 48 h, MOLM14 cells, 48 hours with compound
Procedure: 2b) MEIS1 mRNA Expression Assay
MEIS1 mRNA expression upon treatment of compound was examined by Quantigene Singleplex assay (Thermo Fisher Scientific). This technology allows for direct quantification of mRNA targets using probes hybridizing to defined target sequences of interest and the signal is detected using a Multimode plate reader Envision (PerkinElmer). The MOLM14 cell line was used for this experiment. Cells were plated in 96-well plates at 3,750 cells/well in the presence of increasing concentrations of compounds. After incubation of 48 hours with compounds, cells were lysed in lysis buffer and incubated for 45 minutes at 55° C. Cell lysates were mixed with human MEIS1 specific capture probe or human RPL28 (Ribosomal Protein L28) specific probe as a normalization control, as well as blocking probes. Cell lysates were then transferred to the custom assay hybridization plate (Thermo Fisher Scientific) and incubated for 18 to 22 hours at 55° C. Subsequently, plates were washed to remove unbound materials followed by sequential addition of preamplifiers, amplifiers, and label probe. Signals (=gene counts) were measured with a Multimode plate reader Envision. IC50s were calculated by dose-response modelling using appropriate software. For all non-housekeeper genes response equal counts corrected for background and relative expression. For each sample, each test gene signal (background subtracted) was divided by the normalization gene signal (RPL28: background subtracted). Fold changes were calculated by dividing the normalized values for the treated samples by the normalized values for the DMSO treated sample. Fold changes of each target gene were used for the calculation of IC50s.

MOLM14 cells = assay: Proliferation assay (spheroid assay), MOLM14; format: cell-based; settings: Homo sapiens, MOLM-14, 192 h, 8 days; read-out: spheroid assay_MOLM14 IC50
Procedure: as §1, §2
In order to assess the anti-proliferative effects, 200 MOLM14 cells, […] or 300 KO-52 cells were seeded in 200 μl media per well in 96-well round bottom, ultra-low attachment plates (Costar, catalogue number 7007). Cell seeding numbers were chosen based on growth curves to ensure linear growth throughout the experiment. Test compounds were added at different concentrations and the DMSO content was normalized to 0.3%. Cells were incubated for 8 days at 37° C. and 5% CO2. Spheroid like growth was measured in real-time by live-cell imaging (IncuCyteZOOM, Essenbio, 4× objective) acquiring images at day 8. Confluence (%) as a measure of spheroid size was determined using an integrated analysis tool.
In order to determine the effect of the test compounds over time, the confluence in each well as a measure of spheroid size, was calculated. Confluence of the highest dose of a reference compound was used as baseline for the LC (Low control) and the confluence of DMSO treated cells was used as 0% cytotoxicity (High Control, HC).
Absolute IC50 values were calculated as percent change in confluence as follows: • LC=Low Control: cells treated with e.g. […] of the cytotoxic agent staurosporin, or e.g. cells treated with a high concentration of an alternative reference compound • HC=High Control: Mean confluence (%) (DMSO treated cells)
GraphPad Prism (version 7.00) was used to calculate the IC50. Dose-response equation was used for the plot of % Effect vs Log 10 compound concentration with a variable slope and fixing the maximum to 100% and the minimum to 0%.

[1] = target: T1, Menin/MLL (terbium chelate-labeled menin, FITC-MBM1 peptide) (Homo sapiens, UniProt O00255, T541A); assay: Menin/MLL homogenous time-resolved fluorescence (HTRF) assay; format: binding; settings: 30 min incubation of test compound with terbium chelate-labeled menin
T1 construct: Menin (a.a 1-610-6×his tag)
T1 sequence (O00255 with tags, fused parts or gaps T541A): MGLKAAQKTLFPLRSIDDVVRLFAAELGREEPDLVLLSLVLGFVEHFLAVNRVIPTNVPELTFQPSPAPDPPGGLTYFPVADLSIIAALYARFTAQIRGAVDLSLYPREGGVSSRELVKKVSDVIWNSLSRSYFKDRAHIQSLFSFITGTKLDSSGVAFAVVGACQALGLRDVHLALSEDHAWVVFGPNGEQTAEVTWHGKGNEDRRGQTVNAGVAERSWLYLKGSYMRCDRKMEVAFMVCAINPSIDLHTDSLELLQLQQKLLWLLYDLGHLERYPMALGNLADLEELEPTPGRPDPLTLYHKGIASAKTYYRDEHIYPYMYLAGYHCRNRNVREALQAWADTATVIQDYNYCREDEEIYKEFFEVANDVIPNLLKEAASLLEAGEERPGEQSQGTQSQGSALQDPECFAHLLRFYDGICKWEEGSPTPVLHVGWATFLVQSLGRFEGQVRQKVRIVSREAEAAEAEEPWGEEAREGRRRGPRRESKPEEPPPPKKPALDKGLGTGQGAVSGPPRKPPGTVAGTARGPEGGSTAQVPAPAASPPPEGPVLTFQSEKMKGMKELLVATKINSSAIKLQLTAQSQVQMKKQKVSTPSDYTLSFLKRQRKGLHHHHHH
Procedure: 1) Menin/MLL Homogenous Time-Resolved Fluorescence (HTRF) Assay
To an untreated, white 384-well microtiter plate was added 40 nL 200× test compound in DMSO and 4 μL 2× terbium chelate-labeled menin (vide infra for preparation) in assay buffer (40 mM Tris·HCl, pH 7.5, 50 mM NaCl, 1 mM DTT (dithiothreitol) and 0.05% Pluronic F-127). After incubation of test compound and terbium chelate-labeled menin for 30 min at ambient temperature, 4 μL 2×FITC-MBM1 peptide (FITC-O-alanine-[…]-NH2) (“FITC” means fluorescein isothiocyanate) in assay buffer was added, the microtiter plate centrifuged at 1000 rpm for 1 min and the assay mixtures incubated for 15 min at ambient temperature. The relative amount of menin-FITC-MBM1 complex present in an assay mixture is determined by measuring the homogenous time-resolved fluorescence (HTRF) of the terbium/FITC donor/acceptor fluorphore pair using an EnVision microplate reader (ex. 337 nm/terbium em. 490 nm/FITC em. 520 nm) at ambient temperature. The degree of fluorescence resonance energy transfer (the HTRF value) is expressed as the ratio of the fluorescence emission intensities of the FITC and terbium fluorophores (F^em 520 nm/F^em 490 nm). […]
Compound potencies were determined by first calculating % inhibition at each compound concentration according to equation 1: […]

MOLM-13 tumors = assay: Efficacy (survival) in disseminated MOLM-13 (KMT2A-rearranged) model in NSG mice; format: in vivo; settings: NSG mice bearing established MOLM-13 tumors, vs vehicle; Azacitidine 2 mg/kg ip QD × 7; Compound 51 2 mg/kg po QD × 28; n = 10
Procedure: 4) Efficacy of Menin-MLL Inhibitor in Combination with Azacitidine in MOLM-13 (KMT2A-Rearranged) Model in NSG Mice
Compound 51 was formulated in purified pyrogen-free deionized water, pH 4.0 and prepared to reach a total volume of 8 mL/kg. Doses were adjusted by individual body weight each day. Working stocks of Compound 51 were prepared once per week for each study and stored at 25° C.
Female NSG (NOD.Cg-Prkdc^scid Il2rg^tm1Wjl/SzJ) mice were used when they were approximately 6 to 8 weeks of age and weighed approximately 25 g. All animals could acclimate and recover from any shipping-related stress for a minimum of 7 days prior to experimental use. […]
Animals were monitored daily for clinical signs related to either compound toxicity or tumor burden (i.e., hind limb paralysis, lethargy, etc.).
For survival assessment, results were plotted as the percentage survival against days post tumor implant. […] Median survival was determined utilizing Kaplan-Meier survival analysis. The percent increased life span (ILS) was calculated as: ((median survival day of treated group−median survival day of control group)/median survival day of control group)×100. […]
Survival and body weight data were graphically represented utilizing Prism (Version 9). Statistical significance for body weights was evaluated as described above. […]

Row | IC50 (MEIS1 mRNA expression) | IC50 (MOLM14 cells) | IC50 [1] | Compound | IC50 (KO-52 cells) | % ILS (increased life span) (MOLM-13 tumors)
1 | 0.089 µM | 0.039 µM |  | CC(=O)N1CCC(CN2CCC(Cc3cn(-c4ccc(F)cc4C(=O)N(C)C(C)C)c4cncc(C)c34)C2)CC1 (single isomer, unassigned) [Compound 50] | 2.3 µM | 
2 | 0.365 µM |  | 0.000237 µM | CC(=O)N1C[C@H]2CC(N3CC(Cc4cn(-c5ccc(F)cc5C(=O)N(C)C(C)C)c5cncc(C)c45)C3)C[C@H]2C1 (single isomer, unassigned) [Compound 294a] |  | 
3 |  |  | 0.000132 µM | CC(=O)N1CC[C@@H](N2CC(Cc3cn(-c4ccc(F)cc4C(=O)N(C)C(C)C)c4cncc(C)c34)C2)C[C@H]1C (single isomer, unassigned) [Compound 292a] |  | 
4 |  |  |  | Nc1ncn([C@@H]2O[C@H](CO)[C@@H](O)[C@H]2O)c(=O)n1 [Azacitidine, azacitidine, reference compound] |  | *37%
